{"source": "patent US10724099B2", "about": "“Multiplex methods to assay mixed cell populations simultaneously” (The Broad Institute, Inc., priority 2012, dated 2020)", "key": {"[1]": {"molecular_target": "T1, full-length human aurora-A (Homo sapiens, UniProt O14965)", "T1 construct": "Full-length human aurora-A was assayed; purchased EMD Millipore KinaseProfiler service", "test": "In vitro kinase assay (EMD Millipore KinaseProfiler)", "format": "biochemical", "conditions": "10 μM γ-33P-ATP, 200 μM Kemptide, 8 doses in duplicate", "method": "(§1) In vitro kinase inhibition assays were then performed as follows. Incorporation of radioactivity from 10 μM γ-^33P-ATP was measured across 8 doses in duplicate by the EMD Millipore KinaseProfiler service (Billerica, Mass.) under published standard conditions with […]. Full-length human aurora-A was assayed with 200 μM LRRASLG (Kemptide); full-length human aurora-B with 30 μM […] (SEQ ID NO:5); and full-length human aurora-C with 30 μM […] (SEQ ID NO:6). IC50 values were modeled using least-squares and variable slope with Prism 6.0 software (GraphPad, San Diego, Calif.)."}, "[2]": {"molecular_target": "T2, full-length human aurora-B (Homo sapiens, UniProt Q96GD4)", "T2 construct": "purchased EMD Millipore KinaseProfiler service", "test": "In vitro kinase assay (EMD Millipore KinaseProfiler)", "format": "biochemical", "conditions": "10 μM γ-33P-ATP, 30 μM AKRRRLSSLRA, 8 doses in duplicate", "method": "as §1"}, "[3]": {"molecular_target": "T3, full-length human aurora-C (Homo sapiens, UniProt Q9UQB9)", "T3 construct": "purchased EMD Millipore KinaseProfiler service", "test": "In vitro kinase assay (EMD Millipore KinaseProfiler)", "format": "biochemical", "conditions": "10 μM γ-33P-ATP, 30 μM AKRRRLSSLRA, 8 doses in duplicate", "method": "as §1"}, "HCT-116 cells": {"system": "HCT-116 cells", "test": "DNA content by propidium iodide flow cytometry", "format": "cell-based", "conditions": "10 μM, 24 hours or 48 hours", "method": "In addition, HCT-116 cells were treated with 10 μM of DMSO, or the Aurora Kinase Inhibitors barasertib, GSK1070916, MLN8054, BRD-7880, or tozasertib. 24 hours or 48 hours following treatment, cells were stained with propidium iodide and DNA content per cell was assessed using a Becton Dickinson LSR II flow cytometer."}, "ADCK3": {"molecular_target": "T4, ADCK3 (Homo sapiens, UniProt Q8NI60)", "T4 construct": "purchased DiscoveRx (KINOMEscan scanEDGE panel)", "T4 sequence (Q8NI60 163-647)": "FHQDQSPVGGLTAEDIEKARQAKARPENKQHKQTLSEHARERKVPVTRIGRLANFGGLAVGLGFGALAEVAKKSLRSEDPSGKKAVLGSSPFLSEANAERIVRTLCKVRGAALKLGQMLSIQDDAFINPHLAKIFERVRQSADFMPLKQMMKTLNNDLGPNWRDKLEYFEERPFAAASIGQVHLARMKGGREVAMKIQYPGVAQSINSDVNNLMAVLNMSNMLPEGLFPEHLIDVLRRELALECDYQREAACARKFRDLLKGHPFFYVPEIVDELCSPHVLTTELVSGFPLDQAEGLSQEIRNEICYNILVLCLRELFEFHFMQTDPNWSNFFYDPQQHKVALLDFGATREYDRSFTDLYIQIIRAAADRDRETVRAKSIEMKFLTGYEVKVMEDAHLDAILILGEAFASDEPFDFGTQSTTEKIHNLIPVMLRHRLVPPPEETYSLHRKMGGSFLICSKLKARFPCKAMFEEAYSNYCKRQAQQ", "test": "DiscoveRx KinomeScan binding", "conditions": "Entrez CABC1"}, "AKT1": {"molecular_target": "T5, AKT1 (Homo sapiens, UniProt P31749)", "T5 construct": "purchased DiscoveRx (KINOMEscan scanEDGE panel)", "test": "DiscoveRx KinomeScan binding"}, "ALK": {"molecular_target": "T6, ALK (Homo sapiens, UniProt Q9UM73)", "T6 construct": "purchased DiscoveRx (KINOMEscan scanEDGE panel)", "test": "DiscoveRx KinomeScan binding"}, "AURKA": {"molecular_target": "T7, AURKA (Homo sapiens, UniProt O14965)", "T7 construct": "purchased DiscoveRx (KINOMEscan scanEDGE panel)", "test": "DiscoveRx KinomeScan binding"}, "AURKC": {"molecular_target": "T8, AURKC (Homo sapiens, UniProt Q9UQB9)", "T8 construct": "purchased DiscoveRx (KINOMEscan; added to the scanEDGE panel)", "test": "DiscoveRx KinomeScan binding"}, "BRAF": {"molecular_target": "T9, BRAF (Homo sapiens, UniProt P15056)", "T9 construct": "purchased DiscoveRx (KINOMEscan scanEDGE panel)", "test": "DiscoveRx KinomeScan binding"}, "BRAF(V600E)": {"molecular_target": "T10, BRAF(V600E) (Homo sapiens, UniProt P15056, V600E)", "T10 construct": "purchased DiscoveRx (KINOMEscan scanEDGE panel)", "test": "DiscoveRx KinomeScan binding"}, "BTK": {"molecular_target": "T11, BTK (Homo sapiens, UniProt Q06187)", "T11 construct": "purchased DiscoveRx (KINOMEscan scanEDGE panel)", "test": "DiscoveRx KinomeScan binding"}, "CDK11": {"molecular_target": "T12, CDK11 (Homo sapiens, UniProt Q9BWU1)", "T12 construct": "purchased DiscoveRx (KINOMEscan scanEDGE panel)", "test": "DiscoveRx KinomeScan binding", "conditions": "Entrez CDK19"}, "CHEK1": {"molecular_target": "T13, CHEK1 (Homo sapiens, UniProt O14757)", "T13 construct": "purchased DiscoveRx scanEDGE panel", "test": "DiscoveRx KinomeScan binding"}, "EGFR(L858R)": {"molecular_target": "T14, EGFR(L858R) (Homo sapiens, UniProt P00533, L858R)", "T14 construct": "purchased DiscoveRx scanEDGE panel", "T14 sequence (P00533 25-1210 L858R)": "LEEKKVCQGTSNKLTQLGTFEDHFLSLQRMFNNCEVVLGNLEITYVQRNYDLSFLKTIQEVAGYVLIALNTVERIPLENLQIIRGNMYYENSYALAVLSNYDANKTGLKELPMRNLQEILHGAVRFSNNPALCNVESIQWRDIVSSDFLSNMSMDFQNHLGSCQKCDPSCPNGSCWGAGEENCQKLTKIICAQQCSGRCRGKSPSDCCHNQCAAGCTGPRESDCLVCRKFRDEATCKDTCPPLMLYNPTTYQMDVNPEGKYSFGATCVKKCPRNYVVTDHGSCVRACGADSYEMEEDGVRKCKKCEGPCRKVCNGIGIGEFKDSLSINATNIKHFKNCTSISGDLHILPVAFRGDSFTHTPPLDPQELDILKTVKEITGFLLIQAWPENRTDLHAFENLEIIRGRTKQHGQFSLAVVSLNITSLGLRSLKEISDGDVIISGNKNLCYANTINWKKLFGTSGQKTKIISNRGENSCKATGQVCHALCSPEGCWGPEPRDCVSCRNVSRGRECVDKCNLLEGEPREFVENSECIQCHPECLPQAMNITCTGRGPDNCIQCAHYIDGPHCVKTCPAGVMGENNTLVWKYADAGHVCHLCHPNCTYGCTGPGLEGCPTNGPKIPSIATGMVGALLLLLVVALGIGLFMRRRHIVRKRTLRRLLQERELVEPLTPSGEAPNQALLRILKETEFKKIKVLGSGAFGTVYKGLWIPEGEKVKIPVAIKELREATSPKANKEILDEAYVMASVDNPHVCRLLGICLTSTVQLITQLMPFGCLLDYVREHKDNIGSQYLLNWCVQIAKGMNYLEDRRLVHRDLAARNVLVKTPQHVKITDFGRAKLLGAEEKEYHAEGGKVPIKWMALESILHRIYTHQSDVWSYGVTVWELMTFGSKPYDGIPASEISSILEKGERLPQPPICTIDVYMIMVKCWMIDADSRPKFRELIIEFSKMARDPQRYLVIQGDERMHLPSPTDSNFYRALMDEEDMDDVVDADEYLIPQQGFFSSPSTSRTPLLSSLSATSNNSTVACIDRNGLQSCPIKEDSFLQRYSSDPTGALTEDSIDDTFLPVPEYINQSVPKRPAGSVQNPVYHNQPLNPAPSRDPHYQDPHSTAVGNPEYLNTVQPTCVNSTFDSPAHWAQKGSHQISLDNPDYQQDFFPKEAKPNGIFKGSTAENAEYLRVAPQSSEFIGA", "test": "DiscoveRx KinomeScan binding"}, "EPHA2": {"molecular_target": "T15, EPHA2 (Homo sapiens, UniProt P29317)", "T15 construct": "purchased DiscoveRx scanEDGE panel", "T15 sequence (P29317 24-976)": "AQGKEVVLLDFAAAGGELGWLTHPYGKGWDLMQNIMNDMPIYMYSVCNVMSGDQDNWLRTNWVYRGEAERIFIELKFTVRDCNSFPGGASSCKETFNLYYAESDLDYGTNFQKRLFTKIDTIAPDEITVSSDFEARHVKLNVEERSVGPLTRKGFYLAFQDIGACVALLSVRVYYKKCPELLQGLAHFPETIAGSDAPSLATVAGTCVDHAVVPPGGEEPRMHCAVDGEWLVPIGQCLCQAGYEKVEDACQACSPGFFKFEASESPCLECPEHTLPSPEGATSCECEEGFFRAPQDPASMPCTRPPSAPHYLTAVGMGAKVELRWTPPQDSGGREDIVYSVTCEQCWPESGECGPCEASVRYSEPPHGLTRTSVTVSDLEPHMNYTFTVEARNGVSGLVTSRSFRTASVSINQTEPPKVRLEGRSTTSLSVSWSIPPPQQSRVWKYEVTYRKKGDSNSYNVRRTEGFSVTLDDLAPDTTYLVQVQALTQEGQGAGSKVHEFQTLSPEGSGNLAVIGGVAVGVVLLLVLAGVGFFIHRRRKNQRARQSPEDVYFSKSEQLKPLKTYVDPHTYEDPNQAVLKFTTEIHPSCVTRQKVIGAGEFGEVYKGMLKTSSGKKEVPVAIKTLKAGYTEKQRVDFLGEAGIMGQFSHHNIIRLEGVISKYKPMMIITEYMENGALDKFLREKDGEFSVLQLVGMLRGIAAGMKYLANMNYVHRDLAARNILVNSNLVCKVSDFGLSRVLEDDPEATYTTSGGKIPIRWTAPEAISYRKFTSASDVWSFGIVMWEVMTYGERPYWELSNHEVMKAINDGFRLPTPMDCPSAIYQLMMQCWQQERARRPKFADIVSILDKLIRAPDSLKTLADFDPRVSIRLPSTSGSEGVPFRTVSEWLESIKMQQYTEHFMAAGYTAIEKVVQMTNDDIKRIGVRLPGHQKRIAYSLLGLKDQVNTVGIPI", "test": "DiscoveRx KinomeScan binding"}, "FAK": {"molecular_target": "T16, FAK (Homo sapiens, UniProt Q05397)", "T16 construct": "purchased DiscoveRx scanEDGE panel", "test": "DiscoveRx KinomeScan binding", "conditions": "Entrez PTK2"}, "IKK---alpha": {"molecular_target": "T17, IKK---alpha (Homo sapiens, UniProt O15111)", "T17 construct": "purchased DiscoveRx scanEDGE panel", "test": "DiscoveRx KinomeScan binding", "conditions": "Entrez CHUK"}, "IKK---beta": {"molecular_target": "T18, IKK---beta (Homo sapiens, UniProt O14920)", "T18 construct": "purchased DiscoveRx scanEDGE panel", "test": "DiscoveRx KinomeScan binding", "conditions": "Entrez IKBKB"}, "[4]": {"molecular_target": "T19, JAK2(JH1domain---catalytic) (Homo sapiens, UniProt O60674)", "T19 construct": "JAK2(JH1domain---catalytic); purchased DiscoveRx scanEDGE panel", "T19 sequence (O60674 849-1124 limits assumed)": "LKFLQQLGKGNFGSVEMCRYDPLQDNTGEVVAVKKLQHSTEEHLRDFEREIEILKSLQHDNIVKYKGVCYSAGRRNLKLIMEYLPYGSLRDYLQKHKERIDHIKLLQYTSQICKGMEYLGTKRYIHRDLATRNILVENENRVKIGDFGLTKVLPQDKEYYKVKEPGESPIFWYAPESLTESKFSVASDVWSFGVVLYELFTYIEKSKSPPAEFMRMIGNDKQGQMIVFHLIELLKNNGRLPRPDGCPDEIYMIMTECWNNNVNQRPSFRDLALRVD", "test": "DiscoveRx KinomeScan binding"}, "LKB1": {"molecular_target": "T20, LKB1 (Homo sapiens, UniProt Q15831)", "T20 construct": "purchased DiscoveRx scanEDGE panel (KinomeScan)", "test": "DiscoveRx KinomeScan binding", "conditions": "Entrez STK11"}, "MAP3K4": {"molecular_target": "T21, MAP3K4 (Homo sapiens, UniProt Q9Y6R4)", "T21 construct": "purchased DiscoveRx scanEDGE panel (KinomeScan)", "test": "DiscoveRx KinomeScan binding"}, "MAPKAPK2": {"molecular_target": "T22, MAPKAPK2 (Homo sapiens, UniProt P49137)", "T22 construct": "purchased DiscoveRx scanEDGE panel (KinomeScan)", "test": "DiscoveRx KinomeScan binding"}, "MEK2": {"molecular_target": "T23, MEK2 (Homo sapiens, UniProt P36507)", "T23 construct": "purchased DiscoveRx scanEDGE panel (KinomeScan)", "test": "DiscoveRx KinomeScan binding", "conditions": "Entrez MAP2K2"}, "PAK1": {"molecular_target": "T24, PAK1 (Homo sapiens, UniProt Q13153)", "T24 construct": "purchased DiscoveRx scanEDGE panel (KinomeScan)", "test": "DiscoveRx KinomeScan binding"}, "PAK4": {"molecular_target": "T25, PAK4 (Homo sapiens, UniProt O96013)", "T25 construct": "purchased DiscoveRx scanEDGE panel (KinomeScan)", "test": "DiscoveRx KinomeScan binding"}, "PCTK1": {"molecular_target": "T26, PCTK1 (Homo sapiens, UniProt Q00536)", "T26 construct": "purchased DiscoveRx scanEDGE panel (KinomeScan)", "test": "DiscoveRx KinomeScan binding", "conditions": "Entrez CDK16"}, "PIM2": {"molecular_target": "T27, PIM2 (Homo sapiens, UniProt Q9P1W9)", "T27 construct": "purchased DiscoveRx scanEDGE panel", "test": "DiscoveRx KinomeScan binding"}, "PLK4": {"molecular_target": "T28, PLK4 (Homo sapiens, UniProt O00444)", "T28 construct": "purchased DiscoveRx scanEDGE panel", "test": "DiscoveRx KinomeScan binding"}, "SRPK3": {"molecular_target": "T29, SRPK3 (Homo sapiens, UniProt Q9UPE1)", "T29 construct": "purchased DiscoveRx scanEDGE panel", "test": "DiscoveRx KinomeScan binding"}, "TRKA": {"molecular_target": "T30, TRKA (Homo sapiens, UniProt P04629)", "T30 construct": "purchased DiscoveRx scanEDGE panel", "T30 sequence (P04629 33-796)": "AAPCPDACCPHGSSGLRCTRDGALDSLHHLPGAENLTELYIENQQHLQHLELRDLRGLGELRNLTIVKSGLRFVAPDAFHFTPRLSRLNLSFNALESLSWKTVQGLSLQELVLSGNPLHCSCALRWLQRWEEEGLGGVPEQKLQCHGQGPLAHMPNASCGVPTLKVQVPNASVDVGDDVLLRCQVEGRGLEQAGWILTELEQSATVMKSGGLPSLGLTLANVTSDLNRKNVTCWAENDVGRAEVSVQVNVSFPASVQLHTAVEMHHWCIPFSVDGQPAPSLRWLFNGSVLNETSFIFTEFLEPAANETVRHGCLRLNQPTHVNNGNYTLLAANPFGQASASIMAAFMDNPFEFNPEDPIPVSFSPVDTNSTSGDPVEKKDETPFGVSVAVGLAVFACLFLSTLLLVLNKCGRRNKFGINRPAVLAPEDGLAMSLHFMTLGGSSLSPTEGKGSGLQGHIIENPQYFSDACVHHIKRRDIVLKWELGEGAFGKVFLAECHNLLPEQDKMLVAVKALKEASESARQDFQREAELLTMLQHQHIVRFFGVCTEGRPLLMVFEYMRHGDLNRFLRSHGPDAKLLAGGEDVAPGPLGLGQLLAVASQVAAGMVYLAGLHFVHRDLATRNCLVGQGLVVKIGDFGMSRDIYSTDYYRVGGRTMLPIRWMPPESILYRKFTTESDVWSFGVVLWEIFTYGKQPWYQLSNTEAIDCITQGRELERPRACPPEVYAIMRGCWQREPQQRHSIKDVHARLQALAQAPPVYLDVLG", "test": "DiscoveRx KinomeScan binding", "conditions": "Entrez NTRK1"}, "VEGFR2": {"molecular_target": "T31, VEGFR2 (Homo sapiens, UniProt P35968)", "T31 construct": "purchased DiscoveRx scanEDGE panel", "T31 sequence (P35968 20-1356)": "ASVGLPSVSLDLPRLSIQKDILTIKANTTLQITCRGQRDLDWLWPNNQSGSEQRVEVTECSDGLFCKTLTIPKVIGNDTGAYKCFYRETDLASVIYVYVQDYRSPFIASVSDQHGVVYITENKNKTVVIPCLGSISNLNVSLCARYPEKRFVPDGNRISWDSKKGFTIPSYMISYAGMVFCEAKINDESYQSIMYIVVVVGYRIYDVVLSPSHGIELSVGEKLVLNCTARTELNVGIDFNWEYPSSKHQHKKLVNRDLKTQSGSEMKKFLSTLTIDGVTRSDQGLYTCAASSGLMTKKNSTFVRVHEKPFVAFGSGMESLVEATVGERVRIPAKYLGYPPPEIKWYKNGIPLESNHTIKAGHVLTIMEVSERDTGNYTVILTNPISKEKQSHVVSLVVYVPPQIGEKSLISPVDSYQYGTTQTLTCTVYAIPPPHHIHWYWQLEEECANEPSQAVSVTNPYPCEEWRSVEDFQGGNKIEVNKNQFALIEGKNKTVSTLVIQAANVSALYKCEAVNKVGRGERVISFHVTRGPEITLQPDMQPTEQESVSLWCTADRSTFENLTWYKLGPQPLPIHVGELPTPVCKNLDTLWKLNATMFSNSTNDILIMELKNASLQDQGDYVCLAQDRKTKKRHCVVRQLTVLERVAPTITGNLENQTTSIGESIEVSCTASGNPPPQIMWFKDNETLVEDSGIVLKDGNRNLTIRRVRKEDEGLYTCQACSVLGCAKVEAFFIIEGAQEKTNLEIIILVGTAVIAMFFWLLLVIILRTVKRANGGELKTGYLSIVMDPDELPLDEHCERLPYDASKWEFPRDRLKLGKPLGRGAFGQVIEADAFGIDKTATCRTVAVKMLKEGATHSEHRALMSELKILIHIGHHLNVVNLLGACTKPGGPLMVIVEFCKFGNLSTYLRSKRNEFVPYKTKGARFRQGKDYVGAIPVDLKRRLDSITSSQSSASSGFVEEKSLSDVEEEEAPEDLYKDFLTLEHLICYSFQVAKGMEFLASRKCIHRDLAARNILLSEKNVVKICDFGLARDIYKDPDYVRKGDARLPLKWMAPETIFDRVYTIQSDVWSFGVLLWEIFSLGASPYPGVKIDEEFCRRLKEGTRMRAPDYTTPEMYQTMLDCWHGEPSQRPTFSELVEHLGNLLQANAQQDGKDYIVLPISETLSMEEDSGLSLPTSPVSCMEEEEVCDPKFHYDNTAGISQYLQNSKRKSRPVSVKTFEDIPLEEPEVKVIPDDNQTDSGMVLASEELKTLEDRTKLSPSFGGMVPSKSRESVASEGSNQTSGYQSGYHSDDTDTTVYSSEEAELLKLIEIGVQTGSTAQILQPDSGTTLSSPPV", "test": "DiscoveRx KinomeScan binding", "conditions": "Entrez KDR"}, "YANK3": {"molecular_target": "T32, YANK3 (Homo sapiens, UniProt Q86UX6)", "T32 construct": "purchased DiscoveRx (KinomeScan scanEDGE panel service)", "test": "DiscoveRx KinomeScan binding", "conditions": "Entrez STK32C"}}, "data": [{"smiles": "COc1ccc(NC(=O)Nc2ccc3c(c2)C(=O)N([C@@H](C)CO)C[C@H](C)[C@H](CN(C)Cc2ccc4c(c2)OCO4)O3)cc1", "note": "[BRD-7880]", "values": [{"measurement": "IC50", "setting": "[1]", "value": 2150, "unit": "nM"}, {"measurement": "IC50", "setting": "[2]", "value": 7, "unit": "nM"}, {"measurement": "IC50", "setting": "[3]", "value": 12, "unit": "nM"}, {"measurement": "DNA content per cell", "setting": "HCT-116 cells", "value": "increased DNA content"}, {"measurement": "Percent Control", "setting": "ADCK3", "value": 84, "unit": "%"}, {"measurement": "Percent Control", "setting": "AKT1", "value": 87, "unit": "%"}, {"measurement": "Percent Control", "setting": "ALK", "value": 100, "unit": "%"}, {"measurement": "binding to aurora kinase A", "setting": "AURKA", "value": "25 % of control"}, {"measurement": "Percent Control", "setting": "AURKA; AURKA", "value": 22, "unit": "%"}, {"measurement": "binding to aurora kinase C", "setting": "AURKC", "value": "3 % of control"}, {"measurement": "Percent Control", "setting": "AURKC; AURKC", "value": 3, "unit": "%"}, {"measurement": "Percent Control", "setting": "BRAF", "value": 70, "unit": "%"}, {"measurement": "Percent Control", "setting": "BRAF(V600E)", "value": 65, "unit": "%"}, {"measurement": "Percent Control", "setting": "BTK", "value": 94, "unit": "%"}, {"measurement": "Percent Control", "setting": "CDK11", "value": 43, "unit": "%"}, {"measurement": "Percent Control", "setting": "CHEK1", "value": 100, "unit": "%"}, {"measurement": "Percent Control", "setting": "EGFR(L858R)", "value": 60, "unit": "%"}, {"measurement": "Percent Control", "setting": "EPHA2", "value": 86, "unit": "%"}, {"measurement": "Percent Control", "setting": "FAK", "value": 100, "unit": "%"}, {"measurement": "Percent Control", "setting": "IKK---alpha", "value": 58, "unit": "%"}, {"measurement": "Percent Control", "setting": "IKK---beta", "value": 68, "unit": "%"}, {"measurement": "Percent Control", "setting": "[4]", "value": 98, "unit": "%"}, {"measurement": "Percent Control", "setting": "LKB1", "value": 39, "unit": "%"}, {"measurement": "Percent Control", "setting": "MAP3K4", "value": 86, "unit": "%"}, {"measurement": "Percent Control", "setting": "MAPKAPK2", "value": 80, "unit": "%"}, {"measurement": "Percent Control", "setting": "MEK2", "value": 73, "unit": "%"}, {"measurement": "Percent Control", "setting": "PAK1", "value": 77, "unit": "%"}, {"measurement": "Percent Control", "setting": "PAK4", "value": 100, "unit": "%"}, {"measurement": "Percent Control", "setting": "PCTK1", "value": 95, "unit": "%"}, {"measurement": "Percent Control", "setting": "PIM2", "value": 85, "unit": "%"}, {"measurement": "Percent Control", "setting": "PLK4", "value": 61, "unit": "%"}, {"measurement": "Percent Control", "setting": "SRPK3", "value": 100, "unit": "%"}, {"measurement": "Percent Control", "setting": "TRKA", "value": 84, "unit": "%"}, {"measurement": "Percent Control", "setting": "VEGFR2", "value": 100, "unit": "%"}, {"measurement": "Percent Control", "setting": "YANK3", "value": 91, "unit": "%"}]}]}
